The test system of the experiment is SIRT 1. The experiment can be described thus: Western blot analysis of the expression of SIRT 1 in HeLa cells. In kind it is cell-based, Human. The note with it: for % 3 h increase (SIRT 1 expression compared to control) / % 6 h increase (SIRT 1 expression compared to control) / % 24 h increase (SIRT 1 expression compared to control): HeLa cells; for increase of SIRT 1 expression relative to the other groups: Table 1, especially with respect to resveratrol, reference standard. As to the method: The synergistic effects of co-administration of two substances on SIRT 1 stimulation, determined as a greater, statistically significant effect than the sum of the effects of the two substances individually administered, were evaluated in cell cultures by repeating the experiment at least 8 times for each single combination, either after a stimulation time of 3, 6 and 24 hours (more than 300 total trials), as described in the following detailed description.
Human Cervical Carcinoma cells (HeLa) were cultured in DMEM supplemented with 10% (v/v) fetal bovine serum, 1% antibiotics (penicillin and streptomycin) and 1% L-glutamine at 37° C. in a humidified air atmosphere with 5% (v/v) CO2.
The cells were grown to a confluence of 80%, were then trypsinized, counted with a Burker chamber and plated (100,000 cells /well). The day of the experiment, the cells were treated with the substances at the different concentrations and left in incubation for 3, 6 and 24 hours. The substances were solubilized in DMSO, used at concentrations not toxic for cells (v/v<0.5%).
At the end of the incubation periods, the cells were washed with PBS (pH 7.4) and collected in a 1.5 ml microtube with 0.130 ml of lysis buffer (RIPA buffer) containing a protease inhibitor cocktail, a phosphatase inhibitor cocktail, PMSF, sodium orthovanadate and sodium pyrophosphate.
They were lysed by three freezing-thawing cycles and then the supernatant were recovered.
A part of the lysate was used to quantified the protein content with the spectrophotometer (Thermo Scientific Multiskan FC, Thermo Scientific), using a commercial kit based on the Bradford assay. The final concentrations are expressed in μg/μl.
The cell lysates (25 μg/μl) were combined with the appropriate amount of 1× SDS sample buffer (0.5 M Tris-HCl pH 6.8, 20% SDS, 10% [vol/vol] glycerol, 5% [vol/vol] β-mercaptoethanol, 0.2% bromophenol blue), heated at 95° C. for 5 min, separated by SDS-PAGE and then transferred to polyvinylidene difluoride membranes (PVDF).
For the electrophoretic separation was used a polyacrylamide gel, composed of two parts, a lower one called “Running gel”, containing acrylamide (acrylic acid amide) to 12% (acrylamide/bis-acrylamide 30%), in which occurs the separation of the proteins, and an upper one, called loading gel or “Stacking gel”, containing acrylamide to 10%, where were built the wells for sample loading.
The electrophoretic run was performed by passing a current at 200V for about 1 hour, or until when the front has not reached the bottom of the gel.
Once running, the proteins were transferred from the gel to a […] membrane (PVDF).
The transfer was performed by passing a voltage of 100V for 1 hour.
The membranes were blocked with 5% (wt/vol) nonfat dry milk in Tris-buffered saline with Tween buffer (T-TBS) (20 mmol/1 Tris-Hcl, pH 7.6, 0.138 mol/l NaCl, and 0.1% Tween 20) for 1 hour under stirring and at room temperature.
The expression of SIRT 1 was analyzed incubating the membranes in the presence of specific primary antibodies and, subsequently, of secondary peroxidase-conjugated antibodies, suitable diluted in 5% BSA in T-TBS. Primary Antibodies were used overnight at 4° C. at the following conditions: anti-SIRT 1, rabbit (1:1000) and anti-β-actine, mouse (1:1000). Secondary antibodies were instead used at this dilution: goat anti-rabbit (1:10000) for SIRT 1 and for β-actin.
During this phase the primary antibody binds to species-specific secondary antibody conjugated to a peroxidase enzyme that will bind, in the next step, a specific substrate (luminol) for the reaction of chemiluminescence.
Later, were performed a series of washes with TBS-Tween under stirring, in order to remove all the unbound secondary antibody.
Bound antibodies were visualized using Chemiluminescence Luminata Crescendo Western HRP Substrate and bands were detected and analyzed by the Kodak Image Station 440CF (Eastman Kodak, Rochester, N.Y., USA).
Background: In western blotting, separated proteins are transferred to a membrane and probed.

On to `COc1ccc2cc3[n+](cc2c1OC)CCc1cc2c(cc1-3)OCO2` [Berberine, Berberine Chloride Hydrate], for which the “increase of SIRT 1 expression relative to the other groups” value was “greater increase than the other groups”. For the same molecule, for the setting “5 μM”, the “% 3 h increase (SIRT 1 expression compared to control)” value (shortened to “% 3 h increase”) was 63%, the “% 6 h increase (SIRT 1 expression compared to control)” value (shortened to “% 6 h increase”) amounted to 65% and the “% 24 h increase (SIRT 1 expression compared to control)” value (shortened to “% 24 h increase”) came out at 75%. Where the note is “10 μM”, the “% 3 h increase” value was 65%, the “% 6 h increase” value came to 64% and the “% 24 h increase” value was determined as 75%.

For the molecule `COc1cc(/C=C/C(=O)O)ccc1O` [Ferulic Acid], the “increase of SIRT 1 expression relative to the other groups” value was “greater increase than the other groups”. Where the note is “25 μM”, the “% 3 h increase” value is given as 43%, the “% 6 h increase” value came to 44% and the “% 24 h increase” value worked out at 66%. Besides, under “50 μM”, the “% 3 h increase” value was 57%, the “% 6 h increase” value stood at 58% and the “% 24 h increase” value came to 75%.

In the case of `O.O.O=c1c(O)c(-c2ccc(O)c(O)c2)oc2cc(O)cc(O)c12` [Quercetin, Quercetin Dihydrate], for the setting “5 μM”, the “% 3 h increase” value was 21%, the “% 6 h increase” value is 22% and the “% 24 h increase” value is 29%. In addition, for the setting “10 μM”, the “% 3 h increase” value was found to be 27%, the “% 6 h increase” value came out at 27% and the “% 24 h increase” value stood at 54%.

For `Oc1ccc(C=Cc2cc(O)cc(O)c2)cc1` [Resveratrol, reference compound], under “5 μM”, the “% 3 h increase” value turned out to be 46%, the “% 6 h increase” value is on record as 47% and the “% 24 h increase” value is given as 68%. Where the note is “10 μM”, the “% 3 h increase” value is on record as 47%, the “% 6 h increase” value is on record as 48% and the “% 24 h increase” value is listed as 69%.

Regarding `OCCc1ccc(O)cc1` [Tyrosol], the “increase of SIRT 1 expression relative to the other groups” value was “greater increase than the other groups”. Under “10 μM”, the “% 3 h increase” value is given as 53%, the “% 6 h increase” value was determined as 62% and the “% 24 h increase” value is 68%. Also, under “20 μM”, the “% 3 h increase” value was found to be 76%, the “% 6 h increase” value worked out at 93% and the “% 24 h increase” value is given as 101%.

(+)-Catechin: the “increase of SIRT 1 expression relative to the other groups” value is recorded as “greater increase than the other groups”. Further, where the note is “5 μM”, the “% 3 h increase” value is listed as 44%, the “% 6 h increase” value was 44% and the “% 24 h increase” value was 46%. Further, under “10 μM”, the “% 3 h increase” value is 54%, the “% 6 h increase” value amounted to 54% and the “% 24 h increase” value worked out at 57%.

Values taken from US20170304280A1, “SYNERGISTIC COMBINATIONS STIMULATING THE EXPRESSION OF SIRTUIN 1” (priority 2014, published 2017).
